Measurements published in ChEMBL document CHEMBL5233246, “CT1-3, a novel magnolol-sulforaphane hybrid suppresses tumorigenesis through inducing mitochondria-mediated apoptosis and inhibiting epithelial mesenchymal transition” (Eur J Med Chem, 2020).
Activity calls are given as the source filed them. The calls are words filed in the database; no cut-off is given here.

How the values were obtained:
U-251 = assay: Antiproliferative activity against human U-251 cells assessed as reduction in cell viability incubated for 24 hrs by CCK-8 assay; assay type: functional, cell-based; conditions: U-251, 24 h
[1] = Antiproliferative activity against human […] cells assessed as reduction in cell viability incubated for 24 hrs by CCK-8 assay; assay type: functional, cell-based
HONE1 cell line = assay: Antiproliferative activity against human HONE1 cell line assessed as reduction in cell viability incubated for 24 hrs by CCK-8 assay; assay type: functional, cell-based; conditions: HONE1, 24 h
A549 = assay: Antiproliferative activity against human A549 cells assessed as reduction in cell viability incubated for 24 hrs by CCK-8 assay; assay type: functional, cell-based; conditions: A549, 24 h
[2] = Antiproliferative activity against human NCI-H1688 cells assessed as reduction in cell viability incubated for 24 hrs by CCK-8 assay; assay type: functional, cell-based; conditions: NCI-H1688, 24 h
NCI-H1650 = assay: Antiproliferative activity against human NCI-H1650 cells assessed as reduction in cell viability incubated for 24 hrs by CCK-8 assay; assay type: functional, cell-based; conditions: NCI-H1650, 24 h
NCI-H1299 = assay: Antiproliferative activity against human NCI-H1299 cells assessed as reduction in cell viability incubated for 24 hrs by CCK-8 assay; assay type: functional, cell-based; conditions: NCI-H1299, 24 h
NCI-H460 [3] = assay: Antiproliferative activity against human NCI-H460 cells assessed as reduction in cell viability incubated for 24 hrs by CCK-8 assay; assay type: functional, cell-based; conditions: NCI-H460, 24 h
HepG2 = assay: Antiproliferative activity against human HepG2 cells assessed as reduction in cell viability incubated for 24 hrs by CCK-8 assay; assay type: functional, cell-based; conditions: HepG2, 24 h
MCF7 = assay: Antiproliferative activity against human MCF7 cells assessed as reduction in cell viability incubated for 24 hrs by CCK-8 assay; assay type: functional, cell-based; conditions: MCF7, 24 h
MDA-MB-231 = assay: Antiproliferative activity against human MDA-MB-231 cells assessed as reduction in cell viability incubated for 24 hrs by CCK-8 assay; assay type: functional, cell-based; conditions: MDA-MB-231, 24 h
AGS = assay: Antiproliferative activity against human AGS cells assessed as reduction in cell viability incubated for 24 hrs by CCK-8 assay; assay type: functional, cell-based
SGC-7901 = assay: Antiproliferative activity against human SGC-7901 cells assessed as reduction in cell viability incubated for 24 hrs by CCK-8 assay; assay type: functional, cell-based; conditions: SGC-7901, 24 h
LoVo = assay: Antiproliferative activity against human LoVo cells assessed as reduction in cell viability incubated for 24 hrs by CCK-8 assay; assay type: functional, cell-based
SW480 = assay: Antiproliferative activity against human SW480 cells assessed as reduction in cell viability incubated for 24 hrs by CCK-8 assay; assay type: functional, cell-based; conditions: SW480, 24 h
OVCAR-3 = assay: Antiproliferative activity against human OVCAR-3 cells assessed as reduction in cell viability incubated for 24 hrs by CCK-8 assay; assay type: functional, cell-based; conditions: OVCAR-3, 24 h
NCI-H460 [4] = assay: Cytotoxicity against human NCI-H460 cells assessed as reduction in cell viability at 10 uM incubated for 8 hr by CCK-8 assay; assay type: functional, cell-based
L02 = assay: Cytotoxicity against human L02 cells assessed as reduction in cell viability incubated for 8 hrs by CCK-8 assay; assay type: toxicity, cell-based; conditions: l02, 8 h

| IC50 (U-251) | IC50 (A549) | IC50 (NCI-H1650) | IC50 (NCI-H1299) | IC50 (NCI-H460 [3]) | IC50 (HepG2) | IC50 (MCF7) | IC50 (MDA-MB-231) | IC50 (AGS) | IC50 (SGC-7901) | IC50 (LoVo) | IC50 (SW480) | IC50 (OVCAR-3) | SMILES | IC50 [1] | IC50 (HONE1 cell line) | IC50 [2] | Activity (NCI-H460 [4]) | Activity (L02) |
| --- | --- | --- | --- | --- | --- | --- | --- | --- | --- | --- | --- | --- | --- | --- | --- | --- | --- | --- |
| > 45 µM | > 45 µM | > 45 µM | > 45 µM | > 45 µM | > 45 µM | > 45 µM | > 45 µM | > 45 µM | > 45 µM | > 45 µM | > 45 µM | > 45 µM | C=CCc1ccc(O)c(-c2cc(CC=C)ccc2O)c1 [MAGNOLOL] | > 45 µM | > 45 µM | > 45 µM | inactive | Non-Toxic |
|  |  |  |  |  |  |  |  |  |  |  |  |  | C=CCc1ccc(O)c(-c2cc(CC=C)ccc2OCCS(=O)(=O)CCCCN=C=S)c1 |  |  |  | inactive | Non-Toxic |
|  |  |  |  |  |  |  |  |  |  |  |  |  | C=CCc1ccc(O)c(-c2cc(CC=C)ccc2OCCSCCCCN=C=S)c1 |  |  |  | inactive | Non-Toxic |
